Data on nine compounds can be found in ChEMBL document CHEMBL1201862, “PubChem BioAssay data set” (2004).

Test systems include SNB-75; 786-0; Hs-578T; SN12C; RPMI-8226; CCRF-CEM; NCI-H522; SF-268; UACC-257; UACC-62; SF-295; U-251; SW-620; HCT-15; OVCAR-8; NCI-H23; HL-60; A498; T47D.
Holding throughout (assay): inhibition of tumour cell growth, NCI panel, 48 h

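Briefly, cells in 96-well plates were exposed to five compound concentrations for 48 h, and endpoints were estimated by linear interpolation. At the GI50, growth is halved.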 The source made the active and inactive calls. Rule as the data show it: active = GI50 up to about 1.1 µM and inactive = higher.

On to `c1ccc(/C(=N/Nc2ccncn2)c2ccccn2)cc1`, for which the GI50 is 18.9 µM (inactive) in the test on SNB-75; 17.8 µM (inactive) in the test with 786-0; 0.0114 µM (active) in the test with Hs-578T; 35 µM (inactive) with SN12C; 9.75 µM (inactive) in the test with RPMI-8226; 1.65 µM (inactive) with CCRF-CEM. The GI50 in the test on NCI-H522 was 0.776 µM (active); in the test on SF-268 it was 15.9 µM (inactive); in the test with UACC-257, 20.9 µM (inactive); in the test with UACC-62 it was 26.4 µM (inactive); in the test on SF-295 it was 23.1 µM (inactive); in the test with U-251, 39.6 µM (inactive). Moreover, the GI50 in the test on SW-620 was 6.32 µM (inactive); with HCT-15 it was 24.4 µM; with OVCAR-8, 16.6 µM (inactive); with NCI-H23, 17.6 µM (inactive).

Take `CC(=O)Nc1ccc(S(=O)(=O)/N=c2/sc(S(N)(=O)=O)nn2C)cc1`: the GI50 in the test on SNB-75, in the test with 786-0, in the test with RPMI-8226, with NCI-H522, with SF-268 and with UACC-62 was > 100 µM (inactive) throughout. For the same compound, the GI50 was > 100 µM (inactive) with SF-295; > 100 µM (inactive) in the test on U-251; > 100 µM (inactive) in the test on HL-60; > 100 µM (inactive) with SW-620; over 100 µM in the test on HCT-15; > 100 µM (inactive) with A498. The GI50 in the test on OVCAR-8 and in the test with NCI-H23 was > 100 µM (inactive) throughout.

In the case of `CC1=CC2=C(C(N)=O)C(=O)OC2(C)C(c2ccccc2)C1` (stereo unspecified), the GI50 with SNB-75 is 3.03 µM (inactive); in the test on 786-0 it was > 100 µM (inactive); in the test on Hs-578T, > 100 µM (inactive); in the test on SN12C, > 100 µM (inactive); in the test on RPMI-8226, > 100 µM (inactive); in the test with NCI-H522, > 100 µM (inactive). The GI50 with SF-268, with UACC-257, in the test with UACC-62, in the test on SF-295, with U-251 and in the test on HL-60 was > 100 µM (inactive) throughout. Further, the GI50 in the test on SW-620 is > 100 µM (inactive); with HCT-15, over 100 µM; with A498 it was > 100 µM (inactive); in the test with OVCAR-8, > 100 µM (inactive).

Regarding `CC1=NN(c2nc(N)nc(C/C(N)=N/O)n2)C(C)(C)C1`, the GI50 in the test with SNB-75, with 786-0, in the test on Hs-578T, in the test on SN12C, with RPMI-8226 and in the test with CCRF-CEM was > 100 µM (inactive) each time. Besides, the GI50 in the test with NCI-H522, with SF-268, in the test with UACC-257, in the test on UACC-62, in the test on SF-295 and in the test on U-251 was > 100 µM (inactive) each time. In addition, the GI50 in the test with HL-60 is > 100 µM (inactive); in the test on SW-620, > 100 µM (inactive); in the test on HCT-15 it was over 100 µM; with A498, > 100 µM (inactive); with OVCAR-8 it was > 100 µM (inactive); in the test with NCI-H23 it was > 100 µM (inactive).

Consider `O=C1c2ccc3ccccc3c2CCC1N1CCCCC1` (stereo unspecified), for which the GI50 is 17.4 µM (inactive) with SNB-75; 18 µM (inactive) in the test on 786-0; 20.3 µM (inactive) in the test with Hs-578T; 15.6 µM (inactive) in the test on SN12C; 16.8 µM (inactive) in the test on NCI-H522; 19.1 µM (inactive) in the test with SF-268. The GI50 with UACC-257 was 20.7 µM (inactive); in the test with UACC-62 it was 16.7 µM (inactive); in the test on T47D it was 21.2 µM (inactive); with SF-295, 19.3 µM (inactive); in the test on U-251 it was 18.9 µM (inactive); in the test on HL-60, 21.9 µM (inactive). Further, the GI50 was 17.6 µM (inactive) with SW-620, 20.2 µM in the test on HCT-15, 20.7 µM (inactive) in the test on OVCAR-8 and 19.7 µM (inactive) in the test on NCI-H23.

With `CNC(=O)C(C)C1C(=O)/C(=C(O)/C=C\C(C)=C\C(C)C2OC3(C)OC(C=CC34CO4)C2C)C(=O)N1C1CCC(O)C(C)O1` (stereo unspecified), the GI50 in the test on SNB-75, in the test on 786-0, with SN12C, with RPMI-8226, with CCRF-CEM and with SF-268 was > 100 µM (inactive) in each case. Besides, the GI50 in the test on UACC-257 was > 100 µM (inactive); with UACC-62 it was > 100 µM (inactive); in the test with T47D, > 100 µM (inactive); with U-251, > 100 µM (inactive); with SW-620, > 100 µM (inactive); in the test with HCT-15 it was over 100 µM. In addition, the GI50 in the test on A498 and with OVCAR-8 was > 100 µM (inactive) in each case.

Consider `Clc1ccc(OCc2nnc(CCCCCCCCc3nnc(COc4ccc(Cl)cc4Cl)o3)o2)c(Cl)c1`, for which the GI50 was > 100 µM (inactive) with SNB-75; 47.1 µM (inactive) in the test with 786-0; > 100 µM (inactive) in the test with SN12C; 58.9 µM (inactive) with RPMI-8226; 18.7 µM (inactive) in the test on NCI-H522; 42 µM (inactive) with SF-268. Further, the GI50 in the test with UACC-257 is > 100 µM (inactive); with UACC-62 it was > 100 µM (inactive); with SF-295, 85.1 µM (inactive); in the test with U-251, > 100 µM (inactive); in the test on SW-620, > 100 µM (inactive); in the test on HCT-15 it was 97.5 µM. Also, the GI50 with A498 and in the test with NCI-H23 was > 100 µM (inactive) each time.

With `COc1c(C)c(C/C=C(\C)CC/C=C(\C)CC/C=C(\C)CC/C=C(\C)CCC=C(C)C)c(OC)c(OC)c1OC`, the GI50 with SNB-75 is 43 µM (inactive); in the test with 786-0 it was 16.9 µM (inactive); in the test with Hs-578T, > 100 µM (inactive); in the test on SN12C, 22.9 µM (inactive); in the test with CCRF-CEM, 23.9 µM (inactive); in the test with NCI-H522, 16 µM (inactive). Also, the GI50 in the test with SF-268 was 18.6 µM (inactive); in the test on UACC-257 it was 80.5 µM (inactive); with UACC-62, > 100 µM (inactive); with SF-295 it was 19.9 µM (inactive); in the test with U-251, 79.6 µM (inactive); with SW-620 it was 97.7 µM (inactive). In addition, the GI50 in the test with HCT-15 is 92 µM; with OVCAR-8, 18.4 µM (inactive); in the test with NCI-H23, 17.6 µM (inactive).

As for `COc1cc2c3c(c4cc(OC)c(OC)cc4c2cc1OC)[C@H](O)[C@@H]1CCCN1C3`, the GI50 in the test on SNB-75 is < 0.0312 µM (active); with 786-0, < 0.0321 µM (active); in the test with SN12C it was < 0.0303 µM (active); with RPMI-8226, < 0.0253 µM (active); in the test with CCRF-CEM, < 0.0272 µM (active); in the test on NCI-H522, < 0.0378 µM (active). Further, the GI50 was < 0.0408 µM (active) with SF-268; < 0.0383 µM (active) in the test on UACC-257; < 0.0337 µM (active) in the test with UACC-62; 0.0269 µM (active) in the test with T47D; < 0.0222 µM (active) in the test with SF-295; < 0.0245 µM (active) with U-251. Further, the GI50 in the test on HL-60 is < 0.0357 µM (active); in the test with SW-620, < 0.0269 µM (active); in the test on HCT-15 it was under 0.0239 µM; with A498 it was < 0.0208 µM (active); in the test with OVCAR-8, < 0.0308 µM (active); in the test with NCI-H23, < 0.0344 µM (active).
